Test results from patent publication US20030215462A1, “Use of UGT inhibitors to increase bioavailability” (priority 2001, published 2003).

Key:
[1] = test system: UGT enzymes of human liver microsomes; test: Inhibition of raloxifene glucuronidation (G1, G2) in human liver microsomes; format: biochemical; details: for % of control metabolism (SD, n = 3), raloxifene glucuronide G1 / % of control metabolism (SD, n = 3), raloxifene glucuronide G2: human liver microsomes 250 μg/ml, 15 min
Excerpt: Compounds were eluted using a binary solvent gradient system. […] Solvent B was methanol. […] Detection was at 280 nm.

[2] = molecular target: T1, UGT1A1 (Homo sapiens, UniProt P22309); test: Inhibition of raloxifene glucuronidation by recombinant UGT1A1 Supersomes; details: for activity at 15 min / activity at 15 min, 10 µM / activity at 15 min, 25 µM / activity at 15 min, 50 µM: human; for activity at 15 min, 10 µM: inhibitor 10 μM; for activity at 15 min, 25 µM: inhibitor 25 μM; for activity at 15 min, 50 µM: inhibitor 50 μM
T1 sequence (P22309 26-533): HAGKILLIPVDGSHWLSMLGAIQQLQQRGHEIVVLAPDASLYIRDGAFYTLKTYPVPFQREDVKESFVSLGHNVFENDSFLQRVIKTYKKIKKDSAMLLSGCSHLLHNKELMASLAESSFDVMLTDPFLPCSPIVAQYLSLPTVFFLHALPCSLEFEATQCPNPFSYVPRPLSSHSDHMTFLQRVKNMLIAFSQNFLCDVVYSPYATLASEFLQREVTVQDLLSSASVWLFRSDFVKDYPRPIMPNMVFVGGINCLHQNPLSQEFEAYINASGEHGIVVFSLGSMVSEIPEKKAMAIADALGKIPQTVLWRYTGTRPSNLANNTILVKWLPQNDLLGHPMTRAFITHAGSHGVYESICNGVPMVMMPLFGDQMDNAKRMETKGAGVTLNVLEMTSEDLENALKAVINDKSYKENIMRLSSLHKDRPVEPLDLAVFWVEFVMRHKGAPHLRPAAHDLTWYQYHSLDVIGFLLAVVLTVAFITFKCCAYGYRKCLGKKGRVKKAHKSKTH
Description: (§1) Compounds were eluted using a binary solvent gradient system. Solvent A was water brought to pH 8 with NH4OH. Solvent B was methanol. Solvent flow rate was 1 ml/min and the column temperature was maintained at 50° C. Detection was at 280 nm. […] The system was then returned to the initial conditions and equilibrated for 3 min.

[3] = test system: T2, UGT enzymes of human liver microsomes; test: Kinetic and Ki studies of inhibitors of 7-HFC glucuronidation in human liver microsomes; format: biochemical; details: 7-HFC 20-500 μM
T2 construct: percentage of control metabolism, 7-HFC glucuronidation; percentage of control metabolism, 7-HFC glucuronidation

[4] = molecular target: T3, UGT1A9 (Homo sapiens, UniProt O60656); test: Inhibition of raloxifene glucuronidation by recombinant UGT1A9 Supersomes; details: for activity at 15 min, 50 µM: human, Supersomes with recombinant human UGT1A9, pH 7.5, probe raloxifene 50 μM
T3 sequence (O60656 26-530): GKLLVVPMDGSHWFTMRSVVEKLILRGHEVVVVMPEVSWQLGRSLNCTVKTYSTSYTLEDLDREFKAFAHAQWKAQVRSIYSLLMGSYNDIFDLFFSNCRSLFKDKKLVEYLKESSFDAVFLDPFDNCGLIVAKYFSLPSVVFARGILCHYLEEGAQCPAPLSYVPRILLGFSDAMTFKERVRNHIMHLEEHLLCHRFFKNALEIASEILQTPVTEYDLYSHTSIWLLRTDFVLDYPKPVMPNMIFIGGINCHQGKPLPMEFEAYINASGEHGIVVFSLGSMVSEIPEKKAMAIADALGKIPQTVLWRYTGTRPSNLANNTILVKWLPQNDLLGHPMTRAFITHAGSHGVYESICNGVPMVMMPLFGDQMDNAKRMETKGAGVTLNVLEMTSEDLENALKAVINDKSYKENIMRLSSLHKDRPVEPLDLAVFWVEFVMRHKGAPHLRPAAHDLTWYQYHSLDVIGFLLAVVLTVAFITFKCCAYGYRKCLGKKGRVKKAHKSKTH
Description: as §1

[5] = molecular target: T4, UGT1A3 (Homo sapiens, UniProt P35503); test: Inhibition of raloxifene glucuronidation by recombinant UGT1A3 Supersomes; details: for activity at 15 min, 10 µM / activity at 15 min, 25 µM / activity at 15 min, 50 µM: human; for activity at 15 min, 10 µM: inhibitor 10 μM; for activity at 15 min, 25 µM: inhibitor 25 μM; for activity at 15 min, 50 µM: inhibitor 50 μM
T4 sequence (P35503 29-534): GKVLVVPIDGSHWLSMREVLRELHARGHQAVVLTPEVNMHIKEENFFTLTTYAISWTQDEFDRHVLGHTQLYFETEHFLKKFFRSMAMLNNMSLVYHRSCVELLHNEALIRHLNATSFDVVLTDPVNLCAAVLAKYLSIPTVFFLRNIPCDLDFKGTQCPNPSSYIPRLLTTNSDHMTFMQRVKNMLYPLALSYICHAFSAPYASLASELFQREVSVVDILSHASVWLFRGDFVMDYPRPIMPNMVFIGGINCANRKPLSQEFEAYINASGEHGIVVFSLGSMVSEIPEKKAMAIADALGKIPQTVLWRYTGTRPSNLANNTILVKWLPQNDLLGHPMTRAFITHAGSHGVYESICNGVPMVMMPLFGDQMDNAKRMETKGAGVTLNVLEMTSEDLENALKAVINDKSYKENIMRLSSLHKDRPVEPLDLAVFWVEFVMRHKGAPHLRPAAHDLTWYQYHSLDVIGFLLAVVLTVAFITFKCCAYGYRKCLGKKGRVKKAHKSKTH
Description: as §1

[6] = inhibitor 10 μM, raloxifene 50 μM
[7] = inhibitor 25 μM, raloxifene 50 μM
[8] = inhibitor 50 μM, raloxifene 50 μM
[9] = inhibitor 100 μM, raloxifene 50 μM
[10] = liver lot 032101, inhibitor 50 μM
[11] = liver lot 062101, inhibitor 50 μM
[12] = liver lot 083000, inhibitor 50 μM
[13] = raloxifene 50 μM, inhibitor 10 μM
[14] = raloxifene 50 μM, inhibitor 25 μM
[15] = raloxifene 50 μM, inhibitor 50 μM
[16] = raloxifene 50 μM, inhibitor 100 μM
[17] = Supersomes with recombinant human UGT1A1, pH 7.5, probe raloxifene 50 μM, formation of glucuronide G1, % of control metabolism, raloxifene G1, UGT1A1
[18] = Supersomes with recombinant human UGT1A1, pH 7.5, probe raloxifene 50 μM, formation of glucuronide G1, Inhibition of raloxifene glucuronidation, G1, UGT1A1, G1, raloxifene 50 μM, 250 μg/ml Supersomes, 1 mM UDPGA, 15 min
[19] = Supersomes with recombinant human UGT1A1, pH 7.5, probe raloxifene 50 μM, formation of glucuronide G2, % of control metabolism, raloxifene G2, UGT1A1
[20] = recombinant UGT1A1 Supersomes, pH 7.5, probe raloxifene 50 μM (formation of glucuronide G2), Inhibition of raloxifene glucuronidation, G2, UGT1A1, G2, raloxifene 50 μM, 250 μg/ml Supersomes, 1 mM UDPGA, 15 min
[21] = Supersomes with recombinant human UGT1A3, pH 7.5, probe raloxifene 50 μM, formation of glucuronide G1, % of control metabolism, raloxifene G1, UGT1A3
[22] = Supersomes with recombinant human UGT1A3, pH 7.5, probe raloxifene 50 μM, formation of glucuronide G2, % of control metabolism, raloxifene G2, UGT1A3
[23] = recombinant UGT1A3 Supersomes, pH 7.5, probe raloxifene 50 μM (formation of glucuronide G1), Inhibition of raloxifene glucuronidation, G1, UGT1A3, G1, raloxifene 50 μM, 250 μg/ml Supersomes, 1 mM UDPGA, 15 min
[24] = recombinant UGT1A3 Supersomes, pH 7.5, probe raloxifene 50 μM (formation of glucuronide G2), Inhibition of raloxifene glucuronidation, G2, UGT1A3, G2, raloxifene 50 μM, 250 μg/ml Supersomes, 1 mM UDPGA, 15 min

% of control metabolism (SD, n = 3), raloxifene glucuronide G1 [1, 6]: 68 (3) %
% of control metabolism (SD, n = 3), raloxifene glucuronide G1 [1, 7]: 48 (6) %
% of control metabolism (SD, n = 3), raloxifene glucuronide G1 [1, 8]: 37 (2) %
% of control metabolism (SD, n = 3), raloxifene glucuronide G1 [1, 9]: 31 (3) %
% of control metabolism (SD, n = 3), raloxifene glucuronide G2 [1, 6]: 75 (8) %
% of control metabolism (SD, n = 3), raloxifene glucuronide G2 [1, 7]: 59 (5) %
% of control metabolism (SD, n = 3), raloxifene glucuronide G2 [1, 8]: 46 (3) %
% of control metabolism (SD, n = 3), raloxifene glucuronide G2 [1, 9]: 52 (7) %
% of control metabolism, raloxifene G1 [1, 10]: 45 (1) %
% of control metabolism, raloxifene G2 [1, 10]: 59 (3) %
% of control metabolism, raloxifene G1 [1, 11]: 55 (5) %
% of control metabolism, raloxifene G2 [1, 11]: 45 (6) %
% of control metabolism, raloxifene G1 [1, 12]: 37 (2) %
% of control metabolism, raloxifene G2 [1, 12]: 46 (3) %
% of control metabolism, raloxifene G1 [1, 13]: 68 (3) %
% of control metabolism, raloxifene G2 [1, 13]: 75 (8) %
% of control metabolism, raloxifene G1 [1, 14]: 48 (6) %
% of control metabolism, raloxifene G2 [1, 14]: 59 (5) %
% of control metabolism, raloxifene G1 [1, 15]: 37 (2) %
% of control metabolism, raloxifene G2 [1, 15]: 46 (3) %
% of control metabolism, raloxifene G1 [1, 16]: 31 (3) %
% of control metabolism, raloxifene G2 [1, 16]: 52 (7) %
inhibition of raloxifene glucuronidation, in words ([2]; UGT1A1): excellent inhibitor
activity at 15 min ([2]; Supersomes with recombinant human UGT1A1, pH 7.5, probe raloxifene 50 μM, formation of glucuronide G1): 65%
activity at 15 min, 10 µM [2, 17]: 65%
activity at 15 min, 25 µM [2, 17]: 37%
activity at 15 min, 50 µM [2, 17]: 18%
activity at 15 min, 25 µM [2, 18]: 37%
activity at 15 min, 50 µM [2, 18]: 18%
activity at 15 min, 10 µM [2, 19]: 75%
activity at 15 min, 25 µM [2, 19]: 51%
activity at 15 min, 50 µM [2, 19]: 31%
activity at 15 min ([2]; recombinant UGT1A1 Supersomes, pH 7.5, probe raloxifene 50 μM (formation of glucuronide G2)): 75%
activity at 15 min, 25 µM [2, 20]: 51%
activity at 15 min, 50 µM [2, 20]: 31%
Vmax of 7-HFC glucuronidation (fit of the experiment with this inhibitor) [3]: 57 ± 3 nmol/min/mg
Km ([3]; read-out: Km of 7-HFC glucuronidation (fit of the experiment with this inhibitor)): 81 ± 7 µM
inhibition of raloxifene glucuronidation, in words ([4]; UGT1A9): very poor inhibitor
activity at 15 min, 50 µM ([4]; formation of glucuronide G1, % of control metabolism, raloxifene G1, UGT1A9, inhibitor 50 μM): 84%
activity at 15 min, 50 µM ([4]; formation of glucuronide G2, % of control metabolism, raloxifene G2, UGT1A9, inhibitor 50 μM): 70%
Inhibition of raloxifene glucuronidation, UGT1A9, second line per inhibitor (G2) ([4]; second line (G2, metabolite not given), inhibitor 50 μM, raloxifene 50 μM, 250 μg/ml Supersomes, 1 mM UDPGA, 15 min): 70 (4)
inhibition of raloxifene glucuronidation, in words ([5]; UGT1A3): excellent inhibitor
activity at 15 min, 10 µM [5, 21]: 61%
activity at 15 min, 25 µM [5, 21]: 28%
activity at 15 min, 50 µM [5, 21]: 12%
activity at 15 min, 10 µM [5, 22]: 60%
activity at 15 min, 25 µM [5, 22]: 31%
activity at 15 min, 50 µM [5, 22]: 13%
activity at 15 min, 10 µM [5, 23]: 61%
activity at 15 min, 25 µM [5, 23]: 28%
activity at 15 min, 50 µM [5, 23]: 12%
activity at 15 min, 10 µM [5, 24]: 60%
activity at 15 min, 25 µM [5, 24]: 31%
activity at 15 min, 50 µM [5, 24]: 13%
SMILES: CCCCCCCCOC(=O)c1cc(O)c(O)c(O)c1 [Octyl gallate]
